Like-named read-outs stand apart in the source and are kept apart here.

The test system of one data set is HSV-1. Briefly: microbe, parasite or virus in culture. The format is cell-based.
For another data set, the system named is HSV-2. In words: In vitro efficacy against HSV-2 strains in HFF (CPE, plaque reduction). The format is cell-based. From the text:
In vitro screening by CPE assay in human foreskin fibroblast (HFF) cells with confirmation using plaque reduction assays in HFF.

Another data set deals with HSV-2, strain MS. In words: Mortality of BALB/c mice infected intranasally with HSV-2, strain MS. The format is in vivo. Here is the method:
Animals: BALB/c, female mice, 3-4 weeks of age.
Treatments were administered to mice for 7 consecutive days beginning 72 hr post viral inoculation by oral gavage using a 0.2 ml volume. CMX001 was administered once daily and ACV was given twice daily at approximately 12 hr intervals.
Mortality rates analyzed by Fisher's exact test; Mean day of death (MDD) by Mann-Whitney U rank sum.

Another data set relates to Adenovirus. Particulars: literature values; cited from earlier work.
Data set [1] can be described thus: SVG cell viability / cell number (MTS, alamar blue, hematoxylin). The format is cell-based, human. The conditions noted are these: human, SVG cells; Ara-C 20 μg/ml; read-out: decrease of cell viability (MTS). The protocol:
(§1) Quantification of cell viability using the MTS [3-(4,5-dimethylthiazol-2-yl)-5-(3-carboxymethoxyphenyl)-2-(4-sulfophenyl)-2H-tetrazolium] assay is based on bioactivity of mitochondrial dehydrogenase in living cells, which converts colorless tetrazolium salt to a colored formazan. MTS assays were performed according to manufacturer's instructions (Promega, Madison Wis.). Briefly, culture medium was removed from cells and 50 μL of PBS was added into each well of a 96 well plate. Ten μL of MTS reagent were added to wells of cells, and to a well without cells to determine background. Mixtures were incubated at 37° C. for 2 hours and the absorbance was measured at 490 nm. Trypan blue staining was performed on identical cultures to correlate MTS values with cell viability. The final values indicated are the result from 3 replicates. The value for the non-treated control was set to 100% and all other values are represented as a percentage of the control. Alamar blue (AB) assay.
(§2) Quantification of cell viability using the alamar blue (AB) assay was performed according to the manufacturer's instructions (Invitrogen, Gaithersburg, Md.). Briefly, 10 μL of AB reagent was added to each well of a 96 well dish containing cells or without cells to determine background. Mixtures were incubated at 37° C. for 6 hours and the absorbance measured at 570 nm using 600 nm as a reference wavelength. The value for the non-treated control was set to 100% and all other values are represented as a percentage of the control.
(§3) Because cell density in cultures processed for in situ DNA hybridization could not be measured by MTS or AB assays, cell density was approximated in cell cultures processed by quantifying hematoxylin staining intensity. Coverslips containing cells were prepared for in situ DNA hybridization and co-stained with hematoxylin. Subsequently, each coverslip was scanned and the hematoxylin intensities quantified using ImageJ. To determine the total cell number per coverslip, images were acquired at 10 random positions at 100× magnification. Cells were counted throughout each image and the average cell number per slide was generated by averaging counts from the 10 images for each experimental group. Exactly 900 images at 100× magnification cover the surface of an 18 mm×18 mm coverslip.

In the next data set the test system is SVG cells. The description is as above. It is filed as cell-based, human. Particulars: Ara-C 5 μg/ml. Here is the method:
as §1, §2, §3

Another data set relates to Mad-4 JCV. Briefly: JCV (Mad-4) initial infection of SVG cells (in situ DNA hybridization, qPCR). The conditions noted are these: for decrease in percentage of cells containing JCV DNA: day 7. In general terms: Quantitative PCR measures a nucleic acid by following its amplification.
The nature of data set [2]: Safety and pharmacokinetics of CMX001 in healthy volunteers. Particulars: blood, Human, analyte = label. It is filed as in vivo, human. The protocol:
An initial study was conducted to evaluate the safety and pharmacokinetics of CMX001 in healthy volunteers. The study consisted of a single dose arm (SD) and a multiple dose arm (MD). In the single dose arm 7 cohorts of 6 subjects were treated (4 subjects received active drug and 2 placebo). Enrollment was staggered as 2 subjects (one active, one placebo) followed by 4 subjects (Groups A and B). The estimated single doses for the two highest doses treated for a […] subject were 40 mg (0.6 mg/kg cohort 6) and 70 mg (1 mg/kg cohort 7). In the multiple dose arm, cohort 6MD received 0.1 mg/kg on Day 0, 6 and 12; Cohort 7MD received 0.2 mg/kg on Day 0, 6 and 12. Levels of cidofovir, CMX001 and CMX064 (major metabolite) were measured in blood and urine of subjects during the course of the study. Gastrointestinal (GI) monitoring of the subjects included (a) monitoring for clinical signs of GI adverse events, (b) monitoring for clinical symptoms using a visual Analog Scale, (c) monitoring for appetite loss/anorexia, nausea, vomiting, diarrhea, constipation and intestinal gas/bloating, (d) laboratory tests for fecal occult blood; serum electrolytes, urine specific gravity, BUN/creatinine ratio; serum albumin, and lipids, and (e) diagnostic studies (the Wireless capsule endoscopy (PillCam®, Given Imaging)).

The test system of another data set is BK Virus. In words: BK virus replication in RPTECs, viral DNA by qPCR after 5 days. It is filed as cell-based. The conditions noted are these: Betapolyomavirus hominis, RPTEC. Here is the method: To test the ability of CMX001 to inhibit replication of BK virus, stocks of BK virus were prepared in HFF cells and dilutions of the virus stocks were used to infect primary human renal tubular epithelial cells (RPTECs). Drug dilutions were then added to the wells containing the infected cells and the plates were incubated for 5 days. Total DNA was prepared from the plates and viral DNA was quantified by qPCR.

A further data set has as its system HCMV. Briefly: HCMV viral DNA accumulation in HFF cells, real time PCR, 7 days. It is filed as cell-based. The conditions noted are these: GCV 10 μM.
In another data set the test system is HCMV (AD169). In words: HCMV real time array of viral transcripts. It is filed as cell-based. Particulars: CDV 50 μM, GCV 15 μM, CMX001 0.5 μM; ANOVA P<0.05.
Another data set deals with human PBMCs. In words: Intracellular CDV-PP in human PBMCs. It is filed as in vitro ADME. The protocol:
CMX001 increases cellular exposure to the active antiviral agent, cidofovir-diphosphate (CDV-PP). […] CDV-PP in PBMCs incubated for 48 hours with CMX001 or cidofovir.

The mark [3] stands for this setting: JC polyomavirus, read-out: reduction of JCV DNA containing cells, normalized to cell viability.

For `Nc1nc2c(ncn2COCCO)c(=O)[nH]1` [Acyclovir, acyclovir], the EC50 was greater than 100 µM in the data set on HSV-1 (Human alphaherpesvirus 1, ACV resistant strain B-2006); greater than 100 µM with HSV-1 (Human alphaherpesvirus 1, ACV resistant strain DM2.1); 13.6 ± 2.7 µM in the data set with HSV-1 (Human alphaherpesvirus 1, ACV resistant strain PAAr5); 1.9 ± 0.47 µM in the data set on HSV-1 (Human alphaherpesvirus 1, F (wild type), Table 9); greater than 100 µM in the data set on HSV-1 (Human alphaherpesvirus 1, SC16, ACV resistant strain SC16-S1); no less than 2 µM with HSV-1 (Human alphaherpesvirus 1, read-out: EC50 range, panel of wild-type and ACV-resistant isolates of HSV-1 and HSV-2). In addition, the EC50 with HSV-1 (Human alphaherpesvirus 1, strain F) is 0.35 ± 0.2 µM; in the data set on HSV-1 (Human alphaherpesvirus 1, strain HL-3), 3.8 ± 0.4 µM; in the data set on HSV-2 (Human alphaherpesvirus 2, ACV resistant strain 11572), greater than 100 µM; in the data set with HSV-2 (Human alphaherpesvirus 2, ACV resistant strain 11680), 79 ± 10 µM; in the data set with HSV-2 (Human alphaherpesvirus 2, ACV resistant strain 12247) it was greater than 100 µM; in the data set with HSV-2 (Human alphaherpesvirus 2, ACV resistant strain AG-3), greater than 100 µM. The EC50 was found to be 2.1 ± 0.99 µM in the data set with HSV-2 (Human alphaherpesvirus 2, G (wild type), Table 9); 3.1 ± 3.5 µM with HSV-2 (Human alphaherpesvirus 2, strain G); 2.2 ± 0.8 µM with HSV-2 (Human alphaherpesvirus 2, strain MS). Besides, the MDD was determined as 9.0 ± 1.6 with HSV-2, strain MS (Acyclovir 3 mg/kg); 11.1 ± 2.4 with HSV-2, strain MS (Acyclovir 10 mg/kg); 10.7 ± 2.0 in the data set on HSV-2, strain MS (Acyclovir 30 mg/kg). The “Mortality Number” value is 15/15 in the data set with HSV-2, strain MS (Acyclovir 3 mg/kg); 11/15 in the data set with HSV-2, strain MS (Acyclovir 10 mg/kg); 6/15 with HSV-2, strain MS (Acyclovir 30 mg/kg). The “Mortality Percent” value with HSV-2, strain MS (Acyclovir 3 mg/kg) came to 100%; with HSV-2, strain MS (Acyclovir 10 mg/kg) it was 79%; in the data set with HSV-2, strain MS (Acyclovir 30 mg/kg), 40%. Further, the IC50 in the data set with Adenovirus was greater than 100 µM.
Regarding `Nc1ccn([C@@H]2O[C@H](CO)C(O)C2O)c(=O)n1` (stereo partly drawn) [Ara-C, Cytosine β-D-arabinofuranoside], the cytotoxicity at 20 μg/ml in data set [1] was found to be 21%. In the data set on SVG cells, the “cytotoxicity (MTS)” value is reported as “did not cause cytotoxicity”. Moreover, the entries for the “decrease in percentage of cells containing JCV DNA” value in the data set on Mad-4 JCV (Ara-C 5 μg per mL) and with Mad-4 JCV (Ara-C 20 μg per mL) were 25% and 83%, respectively. The inhibition at 5 µg/mL in the data set with Mad-4 JCV (setting [3]) worked out at 27%. Also, the inhibition at 20 µg/mL in the data set on Mad-4 JCV (setting [3]) was 78%.
Take `Nc1ccn(C[C@@H](CO)OCP(=O)(O)OCCCOCCCC(=O)O)c(=O)n1` [CMX064]: the AUC in data set [2] (0.05 mg/kg, CMX001 0.050 mg/kg) came out at 39 ng·h/mL; in data set [2] (0.1 mg/kg, CMX001 0.100 mg/kg) it was 34 ng·h/mL; in [2] (0.2 mg/kg, CMX001 0.200 mg/kg), 39.7 ng·h/mL; in [2] (0.4 mg/kg, CMX001 0.400 mg/kg) it was 203 ng·h/mL; in data set [2] (0.6 mg/kg, CMX001 0.600 mg/kg), 187 ng·h/mL; in data set [2] (CMX001 0.025 mg/kg), 11.8 ng·h/mL. Besides, the Cmax in data set [2] (0.05 mg/kg, CMX001 0.050 mg/kg) was found to be 4.63 ng/mL; in data set [2] (0.1 mg/kg, CMX001 0.100 mg/kg), 2.85 ng/mL; in data set [2] (0.2 mg/kg, CMX001 0.200 mg/kg), 4.55 ng/mL; in data set [2] (0.4 mg/kg, CMX001 0.400 mg/kg), 23 ng/mL; in data set [2] (0.6 mg/kg, CMX001 0.600 mg/kg), 24.9 ng/mL; in data set [2] (CMX001 0.025 mg/kg), 1.69 ng/mL.
Turning to `Nc1nc(O)c2ncn(COC(CO)CO)c2n1` [ganciclovir, reference compound], the EC50 with BK Virus (Virus Dilution 1:10) was 89 µM; with BK Virus (Virus Dilution 1:50) it was greater than 100 µM; with BK Virus (Virus Dilution 1:100), 70.8 µM. In the data set with HCMV, the “fold reduction of accumulation of viral DNA” value is listed as “less than 10 fold”. For the same compound, in the data set on HCMV (AD169), the “levels of viral transcripts” value was “Significant reductions in levels of most viral transcripts”. In addition, in the data set on Adenovirus, the IC50 is 4.5 to 33 µM.
cidofovir diphosphate [CDV-PP]: the “t1/2 for CDV-PP” value was 156 h in the data set on human PBMCs (PBMCs incubated 48 hours with CMX001 or cidofovir (FIG. 40)), 156 h in the data set on human PBMCs (incubation with CMX001 for 1 hour (FIG. 42)) and 93.6 h in the data set with human PBMCs (incubation with CMX001 for 48 hours (FIG. 41)).

A word on the EC50: it is the concentration that produces a half-maximal response. By IC50 is commonly meant the concentration that gives 50% inhibition. The AUC is concentration integrated over time. Usually Cmax stands for the maximum level reached in the sampled fluid or tissue.
